Assay results published in patent US11230526B1, “Cylcoalkenyl derivatives useful as agonists of the GPR120 and/or GPR40 receptors” (Janssen Pharmaceutica NV, priority 2018, dated 2022).

Biological target: T1, short form of the GPR120 receptor (Homo sapiens, UniProt Q5NUL3)
T1 construct: host or cells: PathHunter CHO-K1 GPR120S β-Arrestin Cell Line
Assay: Human GPR120 DiscoveRx PathHunter Beta-Arrestin assay, Procedure β-arrestin B
Assay type: cell-based

T1 sequence (Q5NUL3 whole entry): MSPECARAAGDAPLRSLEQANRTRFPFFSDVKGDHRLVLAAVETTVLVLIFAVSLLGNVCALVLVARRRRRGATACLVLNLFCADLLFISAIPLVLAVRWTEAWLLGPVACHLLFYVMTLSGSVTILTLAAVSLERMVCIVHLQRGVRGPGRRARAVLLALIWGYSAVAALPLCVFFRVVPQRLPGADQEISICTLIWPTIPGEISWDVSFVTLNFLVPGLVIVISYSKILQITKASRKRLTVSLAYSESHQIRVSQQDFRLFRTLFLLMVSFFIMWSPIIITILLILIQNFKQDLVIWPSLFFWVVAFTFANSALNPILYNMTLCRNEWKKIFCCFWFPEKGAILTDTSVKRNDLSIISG
T1 sequence (P32121 whole entry partner): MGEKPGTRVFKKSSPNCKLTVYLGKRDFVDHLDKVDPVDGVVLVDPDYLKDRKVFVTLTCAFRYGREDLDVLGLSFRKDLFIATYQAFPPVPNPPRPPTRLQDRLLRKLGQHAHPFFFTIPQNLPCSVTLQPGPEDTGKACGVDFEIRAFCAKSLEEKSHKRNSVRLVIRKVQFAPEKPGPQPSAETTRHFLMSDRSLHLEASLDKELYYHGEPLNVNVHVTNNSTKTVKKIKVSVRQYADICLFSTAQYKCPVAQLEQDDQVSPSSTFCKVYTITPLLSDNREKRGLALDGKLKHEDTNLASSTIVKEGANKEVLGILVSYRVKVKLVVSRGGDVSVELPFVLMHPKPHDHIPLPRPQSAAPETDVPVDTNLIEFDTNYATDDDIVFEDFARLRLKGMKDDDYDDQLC

`Cc1c(CCC(=O)O)ccc(OCC2=C(c3ccc(Cl)cc3)CCC2)c1C` [Compound 15, 3-(4-((2-(4-chlorophenyl)cyclopent-1-en-1-yl)methoxy)-2,3-dimethylphenyl)Propanoic Acid] was tested, and the EC50 was 0.122 µM.
Compound `Cc1c(CCC(=O)O)ccc(OCC2=C(c3ncccn3)CCC2)c1C` [Compound 105, 3-[2,3-dimethyl-4-[(2-pyrimidin-2-ylcyclopenten-1-yl)methoxy]phenyl]Propanoic Acid] has an EC50 of 0.445 µM.
For `O=C(O)CCc1ccc(OCC2=C(c3ccc(Cl)cc3)CCCC2)c2c1CCC2` [Compound 514, 3-[7-[[2-(4-chlorophenyl)cyclohexen-1-yl]methoxy]indan-4-yl]Propanoic Acid], the EC50 was 0.252 µM.
In the case of `Cc1c(CCC(=O)O)ccc(OCC2=C(c3ccc(Cl)cc3Cl)CCC2)c1C` [Compound 133, 3-[4-[[2-(2,4-dichlorophenyl)cyclopenten-1-yl]methoxy]-2,3-dimethyl-phenyl]Propanoic Acid], the EC50 is reported as 1.13 µM.
`O=C(O)CCc1ccc(OCC2=C(c3ccc(Cl)cc3)CCC2)c(F)c1` [Compound 149, 3-[4-[[2-(4-chlorophenyl)cyclopenten-1-yl]methoxy]-3-fluoro-phenyl]Propanoic Acid] showed an EC50 of 0.09 µM.
`Cc1c(CCC(=O)O)ccc(OCC2=C(c3ccccc3Br)CCC2)c1C` [Compound 111, 3-[4-[[2-(2-bromophenyl)cyclopenten-1-yl]methoxy]-2,3-dimethyl-phenyl]Propanoic Acid] showed an EC50 of 2.71 µM.
